According to patent US8802104B2, “Parathyroid hormone receptor activation and stem and progenitor cell expansion” (The General Hospital Corporation, priority 2002, dated 2014):

Assays:
[1] = test system: hematopoietic stem cells (LTC-ICs) in the bone marrow; experiment: In vivo PTH administration: LTC-IC frequency in bone marrow; set-up: species or system C57Bl/6 mice
Description: Murine bone marrow stromal cells from confluent cultures were irradiated (15Gy) and plated at a concentration of 20,000 cells/well in 96-well plates in long-term culture medium. Cells were then seeded into the plates in two-fold serial limiting dilutions and cultured at 33° C./5% CO2 in a humidified atmosphere. Cultures were maintained for 5 weeks, changing half of the medium in the wells weekly. Following this, the medium was replaced with methylcellulose containing medium supplemented with recombinant cytokines as described above, then scored for colony growth ten days following the addition of the medium.
For PTH administration, 6-8 week old wild type C57/B male mice were used. […] Control mice (n=4) were injected with an equivalent volume of vehicle. At the end of the treatment period, ionized serum calcium was measured by the Ciba/Corning 634 Ca^++/pH analyzer, and, after euthanasia, the hind limbs and forelimbs were dissected and utilized for cytologic and histologic analysis.
As treatment of stromal cells with PTH led to an increase in the ability of the stromal cell population to support hematopoietic stem cells, it was investigated whether these effects could be recapitulated in vivo. Wild-type C57Bl/6 mice were injected daily with PTH using an intermittent dosing schedule known to increase osteoblasts, and the frequencies of LTC-ICs in the bone marrow were measured. […] To further define that functional stem cells were increased after PTH treatment, an in vivo assay of competitive transplantation into secondary recipients was used and a >2-fold increase in HSCs was documented (P=<0.05, FIG. 5f). […] Therefore, pharmacological activation of PPR increased stem cell number, but appeared to do so without a broad hematopoietic cell expansion.

[2] = test system: lin-Sca-1+c-Kit+ cells in bone marrow; experiment: In vivo PTH administration: flow cytometry of lin-Sca-1+c-Kit+ cells; set-up: species or system C57Bl/6 mice; conditions: four weeks PTH; P<0.01, FIG. 5d
Text: Bone marrow mononuclear cells were isolated as described above. Single cell suspensions were then stained with biotinylated lineage antibodies (CD3, CD4, CD8, Ter119, Gr-1, Mac-1 and B220) and phycoerythrin conjugated anti-Sca-1 and anti-c-Kit (Pharmingen, San Diego, Calif.). Cells were then labeled with a secondary fluorescein isothiocyanante conjugated streptavidin and analyzed on a FACScalibur cytometer (Becton Dickinson and Co., Franklin Lakes, N.J.) using Cell Quest software. […]
For PTH administration, 6-8 week old wild type C57/B male mice were used. […] At the end of the treatment period, ionized serum calcium was measured by the Ciba/Corning 634 Ca^++/pH analyzer, and, after euthanasia, the hind limbs and forelimbs were dissected and utilized for cytologic and histologic analysis.
As treatment of stromal cells with PTH led to an increase in the ability of the stromal cell population to support hematopoietic stem cells, it was investigated whether these effects could be recapitulated in vivo. Wild-type C57Bl/6 mice were injected daily with PTH using an intermittent dosing schedule known to increase osteoblasts, and the frequencies of LTC-ICs in the bone marrow were measured. […]

[3] = test system: primary murine stromal cell cultures; experiment: Alkaline phosphatase staining of primary stromal cell cultures; type: cell-based, mouse; conditions: after 14 days, PTH vs vehicle, FIG. 5b
Description: LTC-IC assays were performed using wild-type stroma and hematopoietic cells. Rat PTH (1-34) (Bachem, Torrance, Calif.) or vehicle was added to each media change either during stroma establishment and/or during culture maintenance to a final concentration of 10^−7 M. Medium was changed every three days for two weeks or until stromal layers became confluent. For alkaline phosphatase staining, primary mononuclear cells obtained as described above from wild-type and or transgenic littermates were then cultured in 24-well plates at an initial concentration of 5×10^6 cells/ml. At 10 or 14 days after seeding, medium was suctioned off, and the adherent cells were gently rinsed twice in PBS. After fixation in 10% Neutral Formalin Buffer for 30 minutes at room temperature, alkaline phosphatase activity was determined histochemically by incubation for 45 minutes at RT with a mixture of 0.1 mg/ml naphthol AS-MX phosphate (Sigma), 0.5% N,N-dimethylformamide, 0.6 mg/ml red violet LB salt (Sigma) in 0.1 M Tris-HCl (pH 8.5). Alkaline phosphatase positive cells were counted at day 10 of culture, when the cultures were subconfluent and individual cells could be identified. For inhibition of γ-secretase activity, 30 μM of γ-secretase inhibitor II (Calbiochem) dissolved in DMSO was added to the long-term culture medium and LTC-IC assays were performed as described. […]

Rat PTH (1-34)
hematopoietic stem cells over mock injected mice ([1]; four weeks PTH treatment, 80 μg/Kg i.p. 5x/week): significant increase in the hematopoietic stem cells
limit dilution LTC-IC assay, stem-like cells ([1]; four weeks PTH, P<0.005, FIG. 5e): an increase in stem-like cells
hematopoietic stem cell population (frequencies of LTC-ICs in the bone marrow) ([1]; two week PTH treatment, 80 μg/Kg i.p.): did not result in any significant increase
lin-Sca-1+c-Kit+ cells compared with mock treated controls [2]: higher frequency and absolute number
alkaline phosphatase positive (osteoblastic) cells [3]: an increase in alkaline positive cells
